Where a chain is given by its changes, count along the chain named. Read-outs that look alike come from different tables or passages of the source.
Assays:
acetylcholinesterase = molecular target: T1, acetylcholinesterase (Rattus norvegicus, UniProt P37136); assay: biochemical; format: biochemical; conditions: rat cortex enzyme; for acetylcholinesterase inhibitory activity inhibition ratio (%): final concentration 4×10−5 mol/L; for IC50: read-out: acetylcholinesterase inhibitory activity IC50 (nmol)
T1 construct: Acetylcholinesterase: rat cortex; from tissue; host or cells: rat cortex
T1 sequence (P37136 32-614): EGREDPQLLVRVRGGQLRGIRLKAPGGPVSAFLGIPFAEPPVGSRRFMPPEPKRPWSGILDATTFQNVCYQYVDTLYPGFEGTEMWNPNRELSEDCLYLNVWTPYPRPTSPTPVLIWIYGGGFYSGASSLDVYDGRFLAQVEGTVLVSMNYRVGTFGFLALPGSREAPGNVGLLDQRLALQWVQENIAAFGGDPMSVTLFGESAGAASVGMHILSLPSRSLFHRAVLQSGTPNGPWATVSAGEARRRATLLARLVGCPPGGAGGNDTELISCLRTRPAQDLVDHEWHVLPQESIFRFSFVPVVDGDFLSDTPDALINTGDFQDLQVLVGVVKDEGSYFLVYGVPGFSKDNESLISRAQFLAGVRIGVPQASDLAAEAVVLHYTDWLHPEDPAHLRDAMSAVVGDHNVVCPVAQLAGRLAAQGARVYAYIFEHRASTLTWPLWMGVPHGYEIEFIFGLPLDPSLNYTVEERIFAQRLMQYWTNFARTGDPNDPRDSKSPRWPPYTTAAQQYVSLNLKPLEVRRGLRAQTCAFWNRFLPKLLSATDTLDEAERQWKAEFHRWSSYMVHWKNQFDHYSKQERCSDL
Experimental: (§1) Sample processing: All samples were formulated as 10-2 mol/L solution by using 100% DMSO. 10-2 mol/L solution was used in microdetermination. 1 μL was taken to use in single tube experiment.
(§2) Solvent control: 0.4% DMSO was used in microdetermination. The inhibition ratio of the sample was obtained wherein the effect of solvent was deducted.
Acetylcholinesterase: rat cortex

KM mice = assay: acute toxicities of compounds on mice; format: in vivo; conditions: 100 mg/kg oral
Experimental: Sample processing: When getting samples, they were undissolved. […] The samples were suspensions. Experimental animals: KM mice, 22-29 g, half male and half female.
Experimental method: Mice were randomly divided into groups. 100 mg/kg of test compounds DC19 and DC20 were administered orally, respectively.

butyrylcholinesterase = molecular target: T2, butyrylcholinesterase (Rattus norvegicus, UniProt Q9JKC1); assay: inhibition of butyrylcholinesterase (rat serum); format: biochemical; conditions: rat serum enzyme; final concentration 4×10−5 mol/L
T2 construct: Butyrylcholinesterase: rat serum; from tissue; host or cells: rat serum
T2 sequence (Q9JKC1 24-597): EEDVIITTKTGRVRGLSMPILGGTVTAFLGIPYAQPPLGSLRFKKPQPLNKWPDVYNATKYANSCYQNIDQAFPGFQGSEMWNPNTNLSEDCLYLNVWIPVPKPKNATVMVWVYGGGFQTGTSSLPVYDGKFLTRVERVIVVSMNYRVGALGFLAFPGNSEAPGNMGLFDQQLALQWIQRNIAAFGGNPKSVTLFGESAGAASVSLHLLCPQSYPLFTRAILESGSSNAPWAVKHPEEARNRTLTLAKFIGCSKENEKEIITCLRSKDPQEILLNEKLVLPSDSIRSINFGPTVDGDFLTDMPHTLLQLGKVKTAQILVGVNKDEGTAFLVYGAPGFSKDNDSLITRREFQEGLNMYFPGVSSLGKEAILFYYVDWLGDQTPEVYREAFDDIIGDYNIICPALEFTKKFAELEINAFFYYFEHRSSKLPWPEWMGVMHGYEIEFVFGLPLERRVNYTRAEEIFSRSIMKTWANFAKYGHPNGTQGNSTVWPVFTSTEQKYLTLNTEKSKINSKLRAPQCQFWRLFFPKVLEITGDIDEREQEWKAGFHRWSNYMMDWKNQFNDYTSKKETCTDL
Experimental: as §1, §2
Butyrylcholinesterase: rat serum

[1] = molecular target: T3, cortex and hippocampus acetylcholinesterase of mice (Mus musculus, UniProt P21836); format: in vivo; conditions: for Acetylcholinesterase activity (%) cortex / Acetylcholinesterase activity (%) hippocampus: 1 h, % of solvent control, Mean ± SEM
T3 construct: from tissue; host or cells: mouse cortex and hippocampus homogenate
T3 sequence (P21836 32-614): T1 sequence (P37136 32-614) with I59V, T109A, S128A, T144A, S271A, D313E, A392T, V467T, Q478K, R499Q
Experimental: 5% DMSO was added and shaken sufficiently to dissolve the samples. Then 1% cosolvent EL (polyoxyethylated castor oil) was added and water was used to make up the remaining volumn to obtain 10 mg/mL sample. The samples were diluted gradually to 0.3 mg/mL, 1 mg/mL and 3 mg/mL. […] The samples were administrated orally according to 0.1˜mL/10 g of volumn to weight ratio. An equal amount of 5% DMSO and 1% EL solution was administered orally to the solvent control group.
(1) Acetylcholinesterase: mouse cortex and hippocampus. 1 h after orally administrated, the mice were decapitated. After the brains were taken out, the hippocampus and cortex were quickly stripped on the ice. To the cortex was added ice-cold 75 mM PBS, and homogenated to form 30× tissue homogenate and to the hippocampus was added ice-cold 75 mM PBS and homogenated to form 40× tissue homogenate. And finally 1/10 by volumn of OMPA was added and placed on the ice to be tested.
(2) Test Method: To the samples were added a reaction system containing PBS, H2O, S-Ach and DTNB. Except for the blank tube, to the rest of the tubes were added an appropriate amount of enzyme. The reaction was carried out at room temperature for 20 minutes. SDS was added to each tube to quench the reaction. An appropriate amount of enzyme was added to the blank tube. Absorbance of each tube was determined by UV-visible spectrophotometer (OD440 nm).

## COc1cc2c(cc1OC)C(=O)C(CC1(F)CCN(Cc3ccccc3)CC1)C2 (stereo not drawn) [DC19, 2-((l-benzyl-4-fluoropiperidin-4-yl)methyl)-5,6-dimethoxy-2,3-dihydro-1H-inden-1-one]
acetylcholinesterase
  acetylcholinesterase inhibitory activity inhibition ratio (%): 82.44%
  IC50: 0.96 nM
KM mice; female KM mouse
  response symptoms: 30 min squint
KM mice; male KM mouse
  time of death after administration: 3 h after administration, death
butyrylcholinesterase
  butyrylcholinesterase inhibitory activity inhibition ratio (%): 71.58%

## COc1cc2c(cc1OC)C(=O)C(CC1(F)CCN(Cc3ccccc3F)CC1)C2 (stereo not drawn) [DC20, 2-((4-fluoro-1-(2-fluorobenzyl)piperidin-4-yl)methyl)-5,6-dimethoxy-2,3-dihydro-1H-inden-1-one]
acetylcholinesterase
  acetylcholinesterase inhibitory activity inhibition ratio (%): 82.04%
  IC50: 0.86 nM
KM mice; female KM mouse
  response symptoms: 8 min, myasthenia, lacrimal
KM mice; male KM mouse
  response symptoms: 6 min, myasthenia, reduction in
  time of death after administration: secretion, immobility; 24 h,
butyrylcholinesterase
  butyrylcholinesterase inhibitory activity inhibition ratio (%): 71.58%
[1]; 0.3 mg/kg oral
  inhibition of cortex acetylcholinesterase compared with the solvent control group: 14.67%
  inhibition of hippocampus acetylcholinesterase compared with the solvent control group: 15.47%
  Acetylcholinesterase activity (%) cortex: 85.33%
  Acetylcholinesterase activity (%) hippocampus: 84.53%
[1]; 1 mg/kg of DC20 versus 10 mg/kg Donepezil
  inhibition effects on mouse cortex and hippocampus AChE compared with Donepezil: comparable to those of 10 mg/kg of positive control drug Donepezil
[1]; 1 mg/kg oral
  inhibition of cortex acetylcholinesterase compared with the solvent control group: 22.02%
  inhibition of hippocampus acetylcholinesterase compared with the solvent control group: 19.76%
  Acetylcholinesterase activity (%) cortex: 77.98%
  Acetylcholinesterase activity (%) hippocampus: 80.24%
[1]; 1 mg/kg, 3 mg/kg and 10 mg/kg oral
  inhibition effects on mouse cortex and hippocampus acetylcholinesterase (in words): significant inhibition effects
[1]; 3 mg/kg oral
  inhibition of cortex acetylcholinesterase compared with the solvent control group: 42.95%
  inhibition of hippocampus acetylcholinesterase compared with the solvent control group: 50.12%
  Acetylcholinesterase activity (%) cortex: 57.05%
  Acetylcholinesterase activity (%) hippocampus: 49.88%
[1]; 10 mg/kg oral
  inhibition of cortex acetylcholinesterase compared with the solvent control group: 66.02%
  inhibition of hippocampus acetylcholinesterase compared with the solvent control group: 65.62%
  Acetylcholinesterase activity (%) cortex: 33.98%
  Acetylcholinesterase activity (%) hippocampus: 34.38%
[1]; mouse cortex and hippocampus AChE, oral
  overall activity compared with Donepezil: better than that of Donepezil

## COc1cc2c(cc1OC)C(=O)C(CC1(F)CCN(Cc3ccccc3F)C(C)C1)C2 (stereo not drawn) [DC109, 2-((4-fluoro-1-(2-fluorobenzyl)-2-methylpiperidin-4-yl)methyl)-5,6-dimethoxy-2,3-dihydro-1H-inden-1-one]
acetylcholinesterase
  acetylcholinesterase inhibitory activity inhibition ratio (%): 88.44%
  IC50: 10.9 nM
butyrylcholinesterase
  butyrylcholinesterase inhibitory activity inhibition ratio (%): 76.62%

## COc1cc2c(cc1OC)C(=O)C(CC1(F)CCN(CCc3ccccc3)CC1)C2 (stereo not drawn) [DC110, 2-((4-fluoro-1-phenethylpiperidin-4-yl)methyl)-5,6-dimethoxy-2,3-dihydro-1H-inden-1-one]
acetylcholinesterase
  acetylcholinesterase inhibitory activity inhibition ratio (%): 88.55%
  IC50: 12.3 nM
butyrylcholinesterase
  butyrylcholinesterase inhibitory activity inhibition ratio (%): 66.30%

## COc1cc2c(cc1OC)C(=O)C(CC1(F)CCN(CCc3ccccc3F)CC1)C2 (stereo not drawn) [DC111, 2-((4-fluoro-1-(2-fluorophenethyl)piperidin-4-yl)methyl)-5,6-dimethoxy-2,3-dihydro-1H-inden-1-one]
acetylcholinesterase
  acetylcholinesterase inhibitory activity inhibition ratio (%): 92.44%
  IC50: 1.96 nM
butyrylcholinesterase
  butyrylcholinesterase inhibitory activity inhibition ratio (%): 71.58%
